{
  "source": "paper PMC10261008",
  "about": "“A peptide triple agonist of GLP-1, neuropeptide Y1, and neuropeptide Y2 receptors promotes glycemic control and weight loss” (Scientific Reports, 2023)",
  "key": {"human GLP-1R [1]": {"biological_target": "T1, human GLP-1R (Homo sapiens, UniProt P43220)", "T1 sequence (P43220 24-463)": "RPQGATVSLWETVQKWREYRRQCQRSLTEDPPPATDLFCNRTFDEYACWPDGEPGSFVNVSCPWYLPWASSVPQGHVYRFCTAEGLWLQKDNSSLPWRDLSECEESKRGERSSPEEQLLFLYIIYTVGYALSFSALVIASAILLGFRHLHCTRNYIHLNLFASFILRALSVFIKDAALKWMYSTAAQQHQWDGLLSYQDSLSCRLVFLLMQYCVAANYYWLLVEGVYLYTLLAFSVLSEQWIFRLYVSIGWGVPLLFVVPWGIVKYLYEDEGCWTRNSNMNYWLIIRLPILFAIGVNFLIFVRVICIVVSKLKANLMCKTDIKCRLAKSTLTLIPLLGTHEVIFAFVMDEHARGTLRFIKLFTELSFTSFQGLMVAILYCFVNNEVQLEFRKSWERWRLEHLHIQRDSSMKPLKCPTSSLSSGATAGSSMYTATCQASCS", "test": "cAMP FRET agonism at GLP-1R in H188-GLP-1R transduced HEK293 cells", "assay_type": "cell-based", "details": "FRET ratio tracking cAMP, Fig. 1A", "experimental": "H188 virally transduced HEK293 cells stably expressing human GLP-1R were obtained from Novo Nordisk A/S for use in FRET assays. HEK293 C24 cells stably expressing the H188 FRET reporter were obtained by G418 selection and grown in monolayers to ∼70% confluency in 100 cm^2 tissue culture dishes and were then transfected with plasmids (11 μg/dish) encoding human GLP-1R, human Y2-R, or human Y1-R. Transfected cells were then incubated for 48 h in fresh culture media. For real-time FRET kinetic assays, cells were harvested, resuspended in 21 mL of SES buffer, and plated at 196 μL per well. […] Y1-R and Y2-R agonism to stimulate Gi proteins and to inhibit adenylyl cyclase was monitored by detecting the ability of PYY peptides, GEP44, or GEP12 to counteract the ability of Adenosine (acting through endogenous A2B receptor and Gs proteins) to increase levels of cAMP. For these assays, increased levels of cAMP were measured as an increase of the 485/535 nm FRET ratio serving as a readout for binding of cAMP to the H188 biosensor that is based on the exchange protein activated by cAMP[15]."}, "human GLP-1R [2]": {"biological_target": "T1, human GLP-1R", "test": "SPR binding to His-tagged GLP-1R on NTA sensor", "details": "in-house SPR, 0.1–100 nM, duplicate"}, "human Y2-R [3]": {"biological_target": "T2, human Y2-R (Homo sapiens, UniProt P49146)", "T2 sequence (P49146 1-381)": "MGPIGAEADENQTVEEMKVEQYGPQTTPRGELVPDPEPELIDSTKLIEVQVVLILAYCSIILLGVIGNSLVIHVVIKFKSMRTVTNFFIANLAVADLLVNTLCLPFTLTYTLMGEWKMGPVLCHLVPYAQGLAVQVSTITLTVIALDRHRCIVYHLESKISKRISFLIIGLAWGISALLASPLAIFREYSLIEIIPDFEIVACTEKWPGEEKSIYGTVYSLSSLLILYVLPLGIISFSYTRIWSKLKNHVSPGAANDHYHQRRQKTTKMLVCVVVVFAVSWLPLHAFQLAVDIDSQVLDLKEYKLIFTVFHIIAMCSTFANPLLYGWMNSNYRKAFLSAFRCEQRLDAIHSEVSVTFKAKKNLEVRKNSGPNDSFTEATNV", "test": "Y2-R agonism: counteraction of adenosine-stimulated cAMP (FRET) in HEK293 C24 cells transfected with Y2-R", "assay_type": "cell-based", "details": "HEK293 C24 cells transiently transfected with Y2-R, 20 min pre-treatment; also reported previously [16]; read-out: IC50, inhibition of adenosine-stimulated cAMP production at Y2-R", "description": "H188 virally transduced HEK293 cells stably expressing human GLP-1R were obtained from Novo Nordisk A/S for use in FRET assays. HEK293 C24 cells stably expressing the H188 FRET reporter were obtained by G418 selection and grown in monolayers to ∼70% confluency in 100 cm^2 tissue culture dishes and were then transfected with plasmids (11 μg/dish) encoding human GLP-1R, human Y2-R, or human Y1-R. Transfected cells were then incubated for 48 h in fresh culture media. For real-time FRET kinetic assays, cells were harvested, resuspended in 21 mL of SES buffer, and plated at 196 μL per well. Plated cells were pretreated with 4 μL of agonist, or antagonist (Ex9-39 (GLP-1R antagonist) or BIIE0246 (Y2-R antagonist)), at a given target concentration and incubated for 20 min before performing the assay. Y1-R and Y2-R agonism to stimulate Gi proteins and to inhibit adenylyl cyclase was monitored by detecting the ability of PYY peptides, GEP44, or GEP12 to counteract the ability of Adenosine (acting through endogenous A2B receptor and Gs proteins) to increase levels of cAMP. For these assays, increased levels of cAMP were measured as an increase of the 485/535 nm FRET ratio serving as a readout for binding of cAMP to the H188 biosensor that is based on the exchange protein activated by cAMP[15]."}, "human Y2-R [4]": {"biological_target": "T2, human Y2-R", "test": "Radioligand competitive binding assay at Y2-R in CHO-K1 cells", "details": "1 pM–1 µM, duplicate independent runs, read-out: half-maximal binding at Y2-R"}, "human Y1-R": {"biological_target": "T3, human Y1-R (Homo sapiens, UniProt P25929)", "T3 construct": "His tag; purchased antibodies-online Inc. ABIN7086253", "T3 sequence (P25929 1-384)": "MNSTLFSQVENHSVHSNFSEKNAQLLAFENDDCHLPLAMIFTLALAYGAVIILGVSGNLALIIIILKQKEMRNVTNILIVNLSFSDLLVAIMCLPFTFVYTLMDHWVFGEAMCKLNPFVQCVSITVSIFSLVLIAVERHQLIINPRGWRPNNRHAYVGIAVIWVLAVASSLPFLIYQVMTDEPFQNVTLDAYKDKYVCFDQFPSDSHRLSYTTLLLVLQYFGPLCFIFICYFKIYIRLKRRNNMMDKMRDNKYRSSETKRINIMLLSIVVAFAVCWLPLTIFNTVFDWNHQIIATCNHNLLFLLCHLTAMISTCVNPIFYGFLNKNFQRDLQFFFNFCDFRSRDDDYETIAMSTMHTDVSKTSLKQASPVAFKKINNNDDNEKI", "test": "SPR binding at Y1-R", "details": "in-house SPR, 4 pM–19 µM; read-out: half-maximal binding at Y1-R", "experimental": "Peptides were precipitated with cold (4 °C) diethyl ether and purified on an Agilent 1200 series High-Performance Liquid Chromatography (HPLC) instrument (10–75% HPLC-grade acetonitrile for 20 min at a 2 mL/min flow rate over an Agilent Zorbax C18 column (5 µm, 9.4 × 250 mm) tracked at 220, 254, and 280 nm. Peptides were purified to > 95%. Peptide binding was assayed by EuroscreenFast (Gosselies, Belgium) or in-house with a Nicoya Open Surface Plasmon Resonance (SPR) instrument. Internalization and β-arrestin recruitment assays were performed by Eurofins Discovery (Fremont, CA, USA).\nPeptide binding to human Y1-R was performed in-house by SPR."}, "human GLP-1R [5]": {"biological_target": "T1, human GLP-1R", "test": "Agonist-activated internalization of GLP-1R", "assay_type": "cell-based", "details": "dose–response 30 pM–1 µM, duplicate", "experimental": "Human GLP-1R (Gs-coupled) cell-based agonist-activated internalization assays were performed by Eurofins Discovery."}, "human GLP-1R [6]": {"biological_target": "T1, human GLP-1R", "test": "β-arrestin-2 recruitment at GLP-1R", "assay_type": "cell-based", "details": "dose–response 5.51 pM–551 nM, duplicate"}, "DIO Wistar rats": {"tested_on": "DIO Wistar rats", "test": "Dose escalation study of food intake and tolerability in diet-induced obese male rats", "assay_type": "in vivo, rat", "details": "s.c. once daily", "experimental": "Wistar rats purchased from Charles River Laboratories (Wilmington, MA) were used in this study. The rats were provided with ad libitum access to food and water and were kept on a 12 h light/12 h dark cycle. For all other experiments, male rats (51–75 g; approximately 4 weeks of age) were fed a diet with 60% of the calories provided by fat (D12492; Research Diets, Inc; New Brunswick, NJ; 5.21 kcal/g) for approximately five months before the start of the study generate diet-induced obesity (DIO). Animals were individually housed in a temperature (22 ± 1 °C) and humidity-controlled (57 ± 4%) room. All body weight measurements were taken just before the start of the dark cycle.\nGEP44 stock solutions were prepared using sterile ultra-pure H2O and gently agitated at 4 °C for > 24 h and then aliquoted and stored at − 20 °C. […] GEP12 (aliquots up to 5 mg) was dissolved in 100 µL DMSO and mixed at 1000 rpm for three min to create a stock solution. Stock solutions were diluted to working solutions in 0.9% normal saline, resulting in a final DMSO concentration of < 2%. […]\nRats were singly housed in BioDAQ cages and allowed to acclimate for at least 10 days before the start of this study. […] Body weight was assessed daily just before the start of the dark cycle. Food and water were available ad libitum and consumption was monitored continuously."}, "[7]": {"tested_on": "lean and diet-induced obese (DIO) rats", "parameters": "method as in PMID 33449689", "details": "rat, in vivo; cited from earlier work"}, "patients": {"tested_on": "patients", "details": "cited from earlier work"}},
  "note": "Square brackets hold non-standard residues; d marks the D form. Ends that are not written are not given here.",
  "data": [
    {"substance": "F[dS]QGTFTSDLSKYLEEEAVREFIAWLKNGGPSRHYLNLVTRQRY-NH2 [GEP12]", "values": [
      {"measurement": "EC50", "setting": "human GLP-1R [1]", "result": 17.3, "unit": "nM"},
      {"measurement": "IC50", "setting": "human GLP-1R [2]", "result": 19.2, "unit": "nM"}
    ]},
    {"substance": "H[dS]QGTFTSDLSKYLEEEAVREFIAWLKNGGPSRHYLNLVTRQRY-NH2 [GEP44]", "values": [
      {"measurement": "IC50", "setting": "human Y2-R [3]", "result": 34, "unit": "nM"},
      {"measurement": "IC50", "setting": "human Y2-R [4]", "result": 65.8, "unit": "nM"},
      {"measurement": "IC50", "setting": "human Y1-R", "result": 86.6, "unit": "nM"},
      {"measurement": "EC50", "setting": "human GLP-1R [5]", "result": 3.97, "unit": "nM"},
      {"measurement": "EC50", "setting": "human GLP-1R [6]", "result": 1.59, "unit": "nM"},
      {"measurement": "no observed adverse effect level (NOAEL)", "setting": "DIO Wistar rats", "result": 20, "unit": "nmol/kg/day"},
      {"measurement": "visceral malaise", "setting": "[7]", "result": "no visceral malaise"}
    ]},
    {"substance": "tirzepatide", "values": [
      {"measurement": "patients achieving a weight loss of 20% and more", "setting": "patients; 10 or 15 mg per week", "result": "at least 50%"},
      {"measurement": "diarrhea, incidence", "setting": "patients; human, in vivo", "result": "15–17%"},
      {"measurement": "discontinuation of treatment due to gastrointestinal symptoms", "setting": "patients; human, in vivo", "result": "3–7%"},
      {"measurement": "nausea, incidence", "setting": "patients; human, in vivo", "result": "12–24%"},
      {"measurement": "vomiting, incidence", "setting": "patients; human, in vivo", "result": "6–10%"}
    ]}
  ]
}
